# Legend:
# [1] = test system: B16; assay: Compound was tested for the in vitro growth inhibition of B-16 melanoma cells after incubation for 3 days (cytotoxicity), the dose that failed to inhibit cell growth by more than 50% was determined; type: functional, cell-based; conditions: Mus musculus, B16, 72 h
# [2] = test system: B16; assay: Boron incorporation into B-16 melanoma cells(1000000 cells) after 24 hours incubation (10.8 ug of B/mL).; type: functional, Mus musculus
smiles,measurement,setting,value
CC(C)(c1ccc(O)cc1)c1ccc(O)cc1 [BISPHENOL A],IC50,[1],8.6 mM
same,B incorporation,[2],0.31 µg

# Source: ChEMBL document CHEMBL1130134, “Synthesis of carboranes containing an azulene framework and in vitro evaluation as boron carriers” (J Med Chem, 1997)
